Target: T1, F508delCFTR cell surface expression in CFBE41o-F508delCFTR-HRP cells (Homo sapiens, UniProt P13569, DEL508-508)
T1 construct: fused on or other part: Horseradish peroxidase (HRP) reporter inserted in the fourth exofacial (extracellular) loop of CFTR; expression is doxycycline-inducible
Assay: Cell Surface Expression-Horse Radish Peroxidase (CSE-HRP) Assay
Type: cell-based
Conditions: for EC50: CFBE41o-F508delCFTR-HRP cells, 18-24 hours at 33° C., 8-point curve, highest concentration 20 μM; for Maximum % activity (%): maximum at any tested concentration, normalized to on-plate positive control (3 μM)
Summary of the method: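 Correctors incubated 18-24 h at 33 °C on doxycycline-induced (0.5 μg/mL, 72 h) CFBE41o-F508delCFTR-HRP cells, 3-fold series from 20 μM. After DPBS washes, luminol luminescence read; activity expressed relative to DMSO and a 3 μM positive control, EC50 fitted from triplicate plates.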

T1 sequence (P13569 with tags, fused parts or gaps DEL508-508 limits assumed): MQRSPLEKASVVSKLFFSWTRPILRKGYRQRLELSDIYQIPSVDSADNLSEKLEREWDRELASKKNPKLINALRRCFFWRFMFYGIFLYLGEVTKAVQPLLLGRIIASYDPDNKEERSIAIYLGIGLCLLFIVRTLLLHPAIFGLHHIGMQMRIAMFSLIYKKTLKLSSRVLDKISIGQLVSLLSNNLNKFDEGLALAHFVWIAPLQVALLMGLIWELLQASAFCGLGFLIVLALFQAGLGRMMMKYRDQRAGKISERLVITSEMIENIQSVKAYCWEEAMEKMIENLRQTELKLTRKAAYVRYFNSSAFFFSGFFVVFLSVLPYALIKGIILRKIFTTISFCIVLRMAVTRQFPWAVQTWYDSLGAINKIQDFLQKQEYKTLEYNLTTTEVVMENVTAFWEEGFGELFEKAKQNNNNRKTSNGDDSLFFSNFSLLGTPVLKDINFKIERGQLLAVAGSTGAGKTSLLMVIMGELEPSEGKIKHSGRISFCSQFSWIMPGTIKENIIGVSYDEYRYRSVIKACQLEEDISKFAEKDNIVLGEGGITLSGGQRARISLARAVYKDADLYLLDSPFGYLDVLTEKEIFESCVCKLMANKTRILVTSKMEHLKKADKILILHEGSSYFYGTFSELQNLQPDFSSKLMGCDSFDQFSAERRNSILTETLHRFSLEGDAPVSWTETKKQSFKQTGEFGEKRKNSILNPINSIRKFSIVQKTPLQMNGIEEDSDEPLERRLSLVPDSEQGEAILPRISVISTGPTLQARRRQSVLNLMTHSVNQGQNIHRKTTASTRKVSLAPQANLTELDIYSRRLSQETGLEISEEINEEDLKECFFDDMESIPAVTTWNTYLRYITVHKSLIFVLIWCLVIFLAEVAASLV
T1 sequence (P13569 919-1480 limits assumed, stated change not applied): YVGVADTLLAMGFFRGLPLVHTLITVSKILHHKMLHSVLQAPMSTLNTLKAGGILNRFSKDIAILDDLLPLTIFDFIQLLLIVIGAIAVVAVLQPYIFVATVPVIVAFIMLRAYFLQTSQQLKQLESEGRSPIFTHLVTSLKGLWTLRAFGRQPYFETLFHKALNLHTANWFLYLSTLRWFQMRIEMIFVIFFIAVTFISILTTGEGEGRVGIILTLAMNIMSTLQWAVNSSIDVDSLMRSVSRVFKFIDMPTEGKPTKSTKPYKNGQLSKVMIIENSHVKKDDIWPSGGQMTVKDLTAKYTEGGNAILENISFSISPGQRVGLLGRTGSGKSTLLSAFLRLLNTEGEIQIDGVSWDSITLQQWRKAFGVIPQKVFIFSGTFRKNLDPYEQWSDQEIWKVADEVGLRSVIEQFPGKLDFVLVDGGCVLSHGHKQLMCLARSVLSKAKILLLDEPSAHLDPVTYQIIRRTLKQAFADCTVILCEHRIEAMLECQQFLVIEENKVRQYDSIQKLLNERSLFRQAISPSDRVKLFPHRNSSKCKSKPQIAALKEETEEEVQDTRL

Row | Structure (SMILES) | EC50 | Maximum % activity (%)
1 | C[C@]1(C(=O)N[C@H]2C[C@@H](C3CCN(C[C@H](O)CO)CC3)Oc3cc(OC(F)(F)F)ccc32)COc2cc3c(cc21)OC(F)(F)O3 [Example 188, (7R)—N-[(2S,4S)-2-{1-[(2S)-2,3-dihydroxypropyl]piperidin-4-yl}-7-(trifluoromethoxy)-3,4-dihydro-2H-1-benzopyran-4-yl]-2,2-difluoro-7-methyl-6,7-dihydro-2H-furo[2,3-f][1,3]benzodioxole-7-carboxamide] | > 20000 nM | 20%
2 | C[C@]1(C(=O)N[C@@H]2C[C@H](C3CCN(C[C@H](O)CO)CC3)Oc3cc(OC(F)(F)F)ccc32)COc2cc3c(cc21)OC(F)(F)O3 [Example 189, (7R)—N-[(2R,4R)-2-{1-[(2S)-2,3-dihydroxypropyl]piperidin-4-yl}-7-(trifluoromethoxy)-3,4-dihydro-2H-1-benzopyran-4-yl]-2,2-difluoro-7-methyl-6,7-dihydro-2H-furo[2,3-f][1,3]benzodioxole-7-carboxamide] | 2030 nM | 186%
3 | COc1ccc2c(c1)O[C@@H](c1cnc(Cl)cn1)C[C@H]2NC(=O)[C@@]1(C)COc2cc3c(cc21)OC(F)(F)O3 [Example 193, (7R)—N-[(2R,4R)-2-(5-chloropyrazin-2-yl)-7-methoxy-3,4-dihydro-2H-1-benzopyran-4-yl]-2,2-difluoro-7-methyl-6,7-dihydro-2H-furo[2,3-f][1,3]benzodioxole-7-carboxamide] | 180 nM | 118%
4 | COc1ccc2c(c1)O[C@@H](c1ccc(Cl)nn1)C[C@H]2NC(=O)[C@@]1(C)COc2cc3c(cc21)OC(F)(F)O3 [Example 195, (7R)—N-[(2R,4R)-2-(6-chloropyridazin-3-yl)-7-methoxy-3,4-dihydro-2H-1-benzopyran-4-yl]-2,2-difluoro-7-methyl-6,7-dihydro-2H-furo[2,3-f][1,3]benzodioxole-7-carboxamide] | 340 nM | 101%
5 | COc1ccc2c(c1)OC(c1ccc(=O)n(C[C@@H](O)CO)n1)C[C@H]2NC(=O)[C@@]1(C)COc2cc3c(cc21)OC(F)(F)O3 (stereo partly drawn) [Example 196, (7R)—N-[(4R)-2-{1-[(2R)-2,3-dihydroxypropyl]-6-oxo-1,6-dihydropyridazin-3-yl}-7-methoxy-3,4-dihydro-2H-1-benzopyran-4-yl]-2,2-difluoro-7-methyl-6,7-dihydro-2H-furo[2,3-f][1,3]benzodioxole-7-carboxamide] | 400 nM | 105%
6 | CC(C)(C)OC(=O)N[C@H]1CC[C@H]([C@@H]2C[C@H](NC(=O)[C@@]3(C)COc4cc5c(cc43)OC(F)(F)O5)c3ccc(OC(F)F)cc3O2)CC1 [Example 198, tert-butyl {trans-4-[(2S,4S)-7-(difluoromethoxy)-4-{[(7R)-2,2-difluoro-7-methyl-6,7-dihydro-2H-furo[2,3-f][1,3]benzodioxole-7-carbonyl]amino}-3,4-dihydro-2H-1-benzopyran-2-yl]cyclohexyl}carbamate] | 1070 nM | 106%
7 | CC(C)(C)OC(=O)N[C@H]1CC[C@H]([C@H]2C[C@@H](NC(=O)[C@@]3(C)COc4cc5c(cc43)OC(F)(F)O5)c3ccc(OC(F)F)cc3O2)CC1 [Example 199, tert-butyl {trans-4-[(2R,4R)-7-(difluoromethoxy)-4-{[(7R)-2,2-difluoro-7-methyl-6,7-dihydro-2H-furo[2,3-f][1,3]benzodioxole-7-carbonyl]amino}-3,4-dihydro-2H-1-benzopyran-2-yl]cyclohexyl}carbamate] | 210 nM | 149%
8 | C[C@]1(C(=O)N[C@H]2C[C@@H](C3(C(=O)O)CC3)Oc3cc(OC(F)(F)F)ccc32)COc2cc3c(cc21)OC(F)(F)O3 [Example 201, 1-[(2S,4S)-4-{[(7R)-2,2-difluoro-7-methyl-6,7-dihydro-2H-furo[2,3-f][1,3]benzodioxole-7-carbonyl]amino}-7-(trifluoromethoxy)-3,4-dihydro-2H-1-benzopyran-2-yl]cyclopropane-1-carboxylic acid] | 1610 nM | 71%
9 | COc1ccc2c(c1)O[C@@H](c1nnn[nH]1)C[C@H]2NC(=O)[C@@]1(C)COc2cc3c(cc21)OC(F)(F)O3 [Example 202, (7R)-2,2-difluoro-N-[(2R,4R)-7-methoxy-2-(1H-tetrazol-5-yl)-3,4-dihydro-2H-1-benzopyran-4-yl]-7-methyl-6,7-dihydro-2H-furo[2,3-f][1,3]benzodioxole-7-carboxamide] | > 20000 nM | 8%
10 | C[C@]1(C(=O)Nc2cc3cc(C4(COCc5ccccc5)CC4)n(C[C@@H](O)CO)c3cc2F)COc2cc3c(cc21)OC(F)(F)O3 [Example 203, (7R)—N-(2-{1-[(benzyloxy)methyl]cyclopropyl}-1-[(2R)-2,3-dihydroxypropyl]-6-fluoro-1H-indol-5-yl)-2,2-difluoro-7-methyl-6,7-dihydro-2H-furo[2,3-f][1,3]benzodioxole-7-carboxamide] | 660 nM | 125%
11 | CC(C)(COCc1ccccc1)c1cc2cc(NC(=O)[C@@]3(C)COc4cc5c(cc43)OC(F)(F)O5)c(F)cc2[nH]1 [Example 204, (7R)—N-{2-[1-(benzyloxy)-2-methylpropan-2-yl]-6-fluoro-1H-indol-5-yl}-2,2-difluoro-7-methyl-6,7-dihydro-2H-furo[2,3-f][1,3]benzodioxole-7-carboxamide] | 310 nM | 134%
12 | CC(C)(COCc1ccccc1)c1cc2cc(NC(=O)[C@]3(C)COc4cc5c(cc43)OC(F)(F)O5)c(F)cc2n1C[C@@H](O)COCc1ccccc1 [Example 205, (7S)—N-{1-[(2R)-3-(benzyloxy)-2-hydroxypropyl]-2-[1-(benzyloxy)-2-methylpropan-2-yl]-6-fluoro-1H-indol-5-yl}-2,2-difluoro-7-methyl-6,7-dihydro-2H-furo[2,3-f][1,3]benzodioxole-7-carboxamide] | > 20000 nM | 18%
13 | CC1(C)OC[C@@H](Cn2c3c(c4cc(NC(=O)[C@@]5(C)COc6cc7c(cc65)OC(F)(F)O7)c(F)cc42)C(C)(C)OCC3(C)C)O1 [Example 207, (7R)—N-(5-{[(4R)-2,2-dimethyl-1,3-dioxolan-4-yl]methyl}-7-fluoro-1,1,4,4-tetramethyl-1,3,4,5-tetrahydropyrano[4,3-b]indol-8-yl)-2,2-difluoro-7-methyl-6,7-dihydro-2H-furo[2,3-f][1,3]benzodioxole-7-carboxamide] | 350 nM | 69%

Compounds with a lower EC50, results first:

Row | EC50 | Maximum % activity (%) | Structure (SMILES)
14 | 90 nM | 115% | C=Cc1cnc([C@H]2C[C@@H](NC(=O)[C@@]3(C)COc4cc5c(cc43)OC(F)(F)O5)c3ccc(OC)cc3O2)cn1 [Example 190, (7R)—N-[(2R,4R)-2-(5-ethenylpyrazin-2-yl)-7-methoxy-3,4-dihydro-2H-1-benzopyran-4-yl]-2,2-difluoro-7-methyl-6,7-dihydro-2H-furo[2,3-f][1,3]benzodioxole-7-carboxamide]
15 | 70 nM | 132% | COc1ccc2c(c1)O[C@H](c1ccc(=O)[nH]n1)C[C@H]2NC(=O)[C@@]1(C)COc2cc3c(cc21)OC(F)(F)O3 [Example 200, (7R)-2,2-difluoro-N-[(2S,4R)-7-methoxy-2-(6-oxo-1,6-dihydropyridazin-3-yl)-3,4-dihydro-2H-1-benzopyran-4-yl]-7-methyl-6,7-dihydro-2H-furo[2,3-f][1,3]benzodioxole-7-carboxamide]
16 | 60 nM | 143% | CC(C)OC(=O)[C@H]1CC[C@H]([C@H]2C[C@@H](NC(=O)[C@@]3(C)COc4cc5c(cc43)OC(F)(F)O5)c3ccc(OC(F)(F)F)cc3O2)CC1 [Example 194, propan-2-yl trans-4-[(2R,4R)-4-{[(7R)-2,2-difluoro-7-methyl-6,7-dihydro-2H-furo[2,3-f][1,3]benzodioxole-7-carbonyl]amino}-7-(trifluoromethoxy)-3,4-dihydro-2H-1-benzopyran-2-yl]cyclohexane-1-carboxylate]
17 | 30 nM | 122% | CCCN(CCO)C(=O)c1ccc([C@H]2C[C@@H](NC(=O)[C@@]3(C)COc4cc5c(cc43)OC(F)(F)O5)c3ccc(OC)cc3O2)nc1 [Example 209, 6-[(2R,4R)-4-{[(7R)-2,2-difluoro-7-methyl-6,7-dihydro-2H-furo[2,3-f][1,3]benzodioxole-7-carbonyl]amino}-7-methoxy-3,4-dihydro-2H-1-benzopyran-2-yl]-N-(2-hydroxyethyl)-N-propylpyridine-3-carboxamide]
18 | 30 nM | 147% | COc1ccc2c(c1)O[C@@H](c1ccc(C(=O)N(CCO)Cc3ccccc3)cn1)C[C@H]2NC(=O)[C@@]1(C)COc2cc3c(cc21)OC(F)(F)O3 [Example 210, N-benzyl-6-[(2R,4R)-4-{[(7R)-2,2-difluoro-7-methyl-6,7-dihydro-2H-furo[2,3-f][1,3]benzodioxole-7-carbonyl]amino}-7-methoxy-3,4-dihydro-2H-1-benzopyran-2-yl]-N-(2-hydroxyethyl)pyridine-3-carboxamide]
19 | 10 nM | 103% | COc1ccc2c(c1)O[C@@H](c1ccc(C(=O)Nc3ccccc3O)cn1)C[C@H]2NC(=O)[C@@]1(C)COc2cc3c(cc21)OC(F)(F)O3 [Example 208, 6-[(2R,4R)-4-{[(7R)-2,2-difluoro-7-methyl-6,7-dihydro-2H-furo[2,3-f][1,3]benzodioxole-7-carbonyl]amino}-7-methoxy-3,4-dihydro-2H-1-benzopyran-2-yl]-N-(2-hydroxyphenyl)pyridine-3-carboxamide]
